Source: US20250295608A1, “PHARMACEUTICAL COMPOSITIONS AND METHODS FOR TREATING OSTEOARTHRITIS” (INSIGNIA PHARMACEUTICALS, LLC, priority 2024, published 2025)
Entries after “also recorded” stand apart in the source; their conditions may differ. Each block holds one compound with its values, some of them ahead of it.

What was measured:
[1] = test system: interleukin-18, tumor necrosis factor, interleukin-8, and interleukin-6; assay: Other cytokines in two-hit stimulated THP1 macrophages; assay type: cell-based, human; conditions: dose dependent; data not shown
PGE2 = assay: IL-1β-induced PGE2 in osteoarthritic human synoviocytes; assay type: cell-based; conditions: for PGE2 release: 200 nanomolar DA or 500 ng/mL IL-1RA, pretreatment 5 min, 1 h or 2 h, IL-1β 1 ng/mL for 10 minutes or 1 hour
Description: FIG. 31A depicts early concentrations of PGE2 present in primary […] of varying concentrations of Dex and DA in view of controls. The concentrations in FIG. 31A were measured at hour three.
FIG. 31B is a bar graph depicting PGE2 release from human osteoarthritic synoviocytes treated with media, 200 nanomolar DA, or 500 nanograms/milliliter of IL-1 Receptor Antagonist (IL-1RA) for the specified pretreatment times at the bottom of each panel (5 minutes, 1 hour, or 2 hours, and then stimulated with 1 nanogram/milliliter IL-1β for either 10 minutes or 1 hour, as indicated. PGE2 in picograms/milliliter was released at detectable levels in each of the media treated samples, including the short 10-minute IL-1β stimulation conditions, implicating low level activation caused by a change of media. The media controls within each panel of treatments released increased PGE2 compared to DA treated cells. Cells were also treated with IL-IRA which inhibits IL-1β by binding […], effectively blocking IL-1β signaling. […] DA is able to incorporate into the cell membrane_and the immediate inhibition of signaling may reflect the ability of DA to change the biophysical properties of the cell membrane.
FIG. 33 illustrates two bar graphs that depict the concentrations of PGE2 inside of the cell versus PGE2 that was secreted into the cell culture media. Specifically, the bar graph labeled “Intracellular” illustrates the concentrations of PGE2 inside of the cell and the bar graph labeled “Supernatent” illustrates the concentration of PGE2 that was secreted into the cell culture media. Synoviocytes were stimulated with IL-1β for 6 hours and then cell culture media harvested separately along with collecting cell lysates. […] Specifically, treating osteoarthritic HSF cells with 1 ng/ml IL-1β final concentration causes the cells to secrete large amounts of PGE2 into the cell culture media. […] To test this, the PGE2 concentrations inside of the cells and in the cell culture media were measured to compare them directly to each other. […] Thus, without being bound by theory, it is believed that DA binds to or interacts with MRP4 proteins and prevents MRP4 from successfully transporting PGE2.

Cyclooxygenase-2 (COX-2) = biological target: T1, Cyclooxygenase-2 (COX-2) (Homo sapiens, UniProt P35354); assay: COX-2 inhibitor screen; assay type: biochemical; conditions: any of the concentrations tested
T1 sequence (P35354 18-604): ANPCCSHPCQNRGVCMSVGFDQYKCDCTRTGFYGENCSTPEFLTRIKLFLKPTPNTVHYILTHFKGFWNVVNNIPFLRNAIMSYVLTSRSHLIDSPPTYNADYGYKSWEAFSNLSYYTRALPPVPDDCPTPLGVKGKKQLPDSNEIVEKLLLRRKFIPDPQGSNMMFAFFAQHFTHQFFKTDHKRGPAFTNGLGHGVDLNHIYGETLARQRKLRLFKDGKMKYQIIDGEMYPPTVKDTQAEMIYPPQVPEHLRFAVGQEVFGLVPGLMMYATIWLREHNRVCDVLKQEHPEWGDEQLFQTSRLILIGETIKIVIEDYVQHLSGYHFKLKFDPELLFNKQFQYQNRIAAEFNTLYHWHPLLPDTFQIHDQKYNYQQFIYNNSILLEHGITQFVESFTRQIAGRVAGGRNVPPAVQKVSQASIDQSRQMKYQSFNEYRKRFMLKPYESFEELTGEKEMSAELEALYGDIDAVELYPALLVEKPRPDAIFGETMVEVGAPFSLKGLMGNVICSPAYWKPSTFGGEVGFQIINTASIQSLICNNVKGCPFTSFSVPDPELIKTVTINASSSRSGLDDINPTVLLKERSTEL

prostaglandin D2 (PGD2) = assay: IL-1β-induced PGD2 release in osteoarthritic human synoviocytes; assay type: cell-based; conditions: IL-1β 0.5 ng/mL
arachidonic acid (AA) = assay: Arachidonic acid in IL-1β-stimulated osteoarthritic synoviocytes; assay type: cell-based, human; conditions: IL-1β 1 ng/mL, 3 hours; cell lysates
Description: Early concentrations of arachidonic acid (AA) present in primary human synoviocytes from patients with osteoarthritis that were stimulated with 1 ng/mL final concentration interleukin 1-beta (B) for 3 hours in the presence of varying concentrations of Dex and DA in view of controls are depicted in FIG. 32. The concentrations of AA in FIG. 32 were normalized to total protein content from the cell lysates using bicinchoninic acid (BCA).

prostaglandin I2 (PGI2) = assay: PGI2 in IL-1β-stimulated osteoarthritic synoviocytes; assay type: cell-based, human; conditions: IL-1β 1 ng/ml, 24 hours
Description: FIG. 25 is a bar graph that depicts the concentration of prostaglandin I2 (PGI2) present in primary human synoviocytes from patients with osteoarthritis that were stimulated with 1 ng/ml final concentration of IL-1β for 24 hours in the presence of varying concentrations of DA and Dex in view of controls. PGI2 concentration response mirrored PGE2 concentrations after DA treatment. […] It is noted that prostaglandin H2 (PGH2) was also tested and was not detected in either cell culture media or from cell lysates. Without being bound by theory, it is believed that PGH2 is an intermediate and is (near) immediately converted into downstream prostaglandins and therefore levels of PGH2 are not detectable.

SOX9 = SOX9 relative expression in osteoarthritic chondrocytes (qRT-PCR, normalized to GAPDH); assay type: cell-based, human
[2] = test system: IL-1β-induced PGE2 release; assay: IL-1β-induced PGE2 release from normal human chondrocytes (competitive EIA); assay type: cell-based; conditions: for inhibition at 10 µM: Homo sapiens, Chondrocyte
type I collagen (Col1a1) = assay: Col1a1 relative expression in osteoarthritic chondrocytes (qRT-PCR); assay type: cell-based; conditions: passage 5 human osteoarthritic chondrocytes, 27 days
Description: To evaluate the biological ramifications of the SOX9 to RUNX2 regulation mentioned above, delta-delta relative gene expression was assessed against medium controls, with normalization to GAPDH for both Col2a1 and Col1a1 in the samples tested with reference to Example 15. […] Moreover, treatment with 100 mM Lac increased collagen expression (49.88+4.31 and 1.63+0.20 for Col2a1 and Col1a1, respectively; FIGS. 51 and 52).

Elastin (ELN) = assay: ELN mRNA in normal human dermal fibroblasts (NHDF), qRT-PCR; assay type: cell-based; conditions: IL-1β 0.1 ng/ml, 24 hours; 100 mM Lac, 0.1 mM Dxp; n=3
Description: (§1) After 24 hours, total mRNA was isolated and delta-delta Cp relative expression was calculated versus untreated medium controls, normalized to the housekeeping gene, GAPDH. Statistical analysis was then conducted via t-test.

Aggrecan (ACAN) = assay: ACAN relative expression in osteoarthritic chondrocytes (qRT-PCR); assay type: cell-based; conditions: passage 5 human osteoarthritic chondrocytes, 27 days
[3] = test system: type II collagen (Col2a1); assay: Col2a1 relative expression in osteoarthritic chondrocytes (qRT-PCR); assay type: cell-based, human
[4] = test system: matrix metalloproteinase 3 (MMP3); assay: MMP3 mRNA in NHDF, qRT-PCR; assay type: cell-based, human; conditions: IL-1β 0.1 ng/ml, 24 hours; 100 mM Lac, 0.1 mM Dxp
Description: as §1

RUNX2 = RUNX2 relative expression in osteoarthritic chondrocytes (qRT-PCR)
[5] = test system: matrix metalloproteinase 12 (MMP12); assay: MMP12 mRNA in NHDF, qRT-PCR; assay type: cell-based, human; conditions: IL-1β 0.1 ng/ml, 24 hours; 100 mM Lac, 0.1 mM Dxp
Description: as §1

SOX9 versus RUNX2 = assay: Relative expression of SOX9 versus RUNX2 in osteoarthritic chondrocytes; assay type: cell-based, human; conditions: for expression of SOX9 compared to RUNX2: passage 5 human osteoarthritic chondrocytes, 27 days
MMP13 = MMP13 relative expression in osteoarthritic chondrocytes (qRT-PCR); assay type: cell-based, human; conditions: for Observed Relative expression of MMP13: 0.1% HA, 0.1 uM Dex
IL-1β release = assay: Two-hit (LPS then ATP) inflammasome activation, IL-1β release from THP1 macrophages; assay type: cell-based, human; conditions: with 25 nanomolar Dex
[6] = high passage, dedifferentiated osteoarthritic chondrocytes, TGF-β3, 14 days
[7] = pre-incubation 24 hours, 24-hour harvest, 25 uM Dec, 28 mM Lac, 10 uM LA, singlet
[8] = rescue (added after overnight IL-1β activation), 24-hour harvest, 25 uM Dec, 28 mM Lac, 10 uM LA, singlet
[9] = rescue, 96-hour harvest, 25 uM Dec, 28 mM Lac, 10 uM LA, singlet
[10] = 100 millimolar Lac with 10 ng/mL TGF-B3, 14 days, micromass cultures
[11] = 100 millimolar Lac, 14 days, monolayer cultures
[12] = passage 5 human osteoarthritic chondrocytes, 27 days
[13] = low passage osteoarthritic chondrocytes, 7, 14, 28 days

inhibition of COX-2 activity (Cyclooxygenase-2 (COX-2)): no observed inhibition
Compound: CCCCCCCCCC(=O)O [DA, decanoic acid]
expression of interleukin-18, tumor necrosis factor, interleukin-8, and interleukin-6 [1]: reduced the expression | PGE2 release (PGE2): blocked the low-level activation seen in media controls | concentrations inhibiting PGE2 release (PGE2; IL-1β 0.5 ng/mL): above 1 micromolar | PGE2 inside of the cell (PGE2; IL-1β 1 ng/ml, 6 hours, cell lysates): causes PGE2 to build up intracellularly | PGE2 secreted into the cell culture media (PGE2; IL-1β 1 ng/ml, 6 hours, supernatant): causes PGE2 secretion to be abrogated | increase in potency of DA (PGE2; by 100 picomolar Dex): 2.2 × | concentrations inhibiting PGD2 release (prostaglandin D2 (PGD2)): above 1 micromolar | concentration of AA normalized to total protein (arachidonic acid (AA)): lower concentrations of AA than the Dex samples; also recorded: lower than that of the control with IL-1β | secreted PGI2 levels (prostaglandin I2 (PGI2)): decreases secreted PGI2 levels | SOX9 expression (SOX9; [6]): increased SOX9 transcription

Compound: C[C@@H]1C[C@H]2[C@@H]3CCC4=CC(=O)C=C[C@]4(C)[C@@]3(F)[C@@H](O)C[C@]2(C)[C@@]1(O)C(=O)CO [Dex, dexamethasone, reference compound]
concentration with statistical significance, PGE2 release ([2]; IL-1β, 48 h): 100 picomolar

Compound: O=C(O)CCCCC1CCSS1 (stereo not drawn) [LA, α-lipoic acid]
inhibition at 10 µM ([2]; 96 h, rescue, 96-hour harvest, 25 uM Dec, 28 mM Lac, 10 uM LA, singlet): 33% | inhibition at 10 µM [2, 7]: -59% | SOX9 expression (SOX9; [6]): increased SOX9 transcription; also recorded: increases SOX9 relative expression

Compound: CCCCCCCCCC(=O)O [DA/Dec]
SOX9 expression (SOX9; [6]): increased expression of SOX9

Compound: CC(O)C(=O)O (centres unmarked) [Lac, lactate]
relative expression of Col1a1 versus medium controls (type I collagen (Col1a1)): 1.63+0.20 fold | inhibition of PGE2 release ([2]; 100 millimolar Lac, 0.5 ng/mL IL-1β, 48 h): complete inhibition | concentration with statistically significant effect, PGE2 release ([2]; IL-1β, 48 h): ≥ 10 millimolar | inhibition of PGE2 release [2, 7]: −139% | inhibition of PGE2 release [2, 8]: 64% | inhibition of PGE2 release [2, 9]: 27% | relative expression of ELN (Elastin (ELN)): 0.86+3 | relative expression of ACAN (Aggrecan (ACAN)): 3.81+0.77 fold | increase in Col2a1 [3, 10]: 88 fold | increase in collagen ([3]; 100 millimolar Lac, 14 days, micromass pellets): 11 fold | increase in relative expression of Col2a1 [3, 11]: 1600 fold | increase in Col2a1 compared to controls ([3]; high passage osteoarthritic chondrocytes, TGF-B, 14 days, 28 mM Lac): 30 fold | relative expression of Col2a1 ([3]; low passage osteoarthritic chondrocytes, day 28): elevated Col2a1 relative expression | relative expression of Col2a1 versus medium controls [3, 12]: 49.88+4.31 fold | relative expression of MMP3 [4]: 1.5 ± 0.8 | RUNX2 expression (RUNX2; [13]): temporal decrease in RUNX2; also recorded: temporally reduced RUNX2 expression | relative expression of RUNX2 versus medium controls (RUNX2; [12]): −2.51+1.33 | relative expression of MMP12 [5]: 2.2 ± 0.8 | ratio of SOX9/RUNX2 (SOX9 versus RUNX2; [13]): temporally increased | expression of SOX9 compared to RUNX2 (SOX9 versus RUNX2): 25.14+12.71 | increase in SOX9 (SOX9; [10]): 9 fold | increase in relative expression of SOX9 (SOX9; [11]): 8 fold | increase in SOX9 transcription (SOX9; high passage osteoarthritic chondrocytes, TGF-B, 14 days, 100 mm LA, 28 mM Lac): 2 fold | SOX9 expression (SOX9; [6]): increased SOX9 transcription; also recorded: increased expression of SOX9 | SOX9 expression (SOX9; [13]): temporal increase in SOX9 | relative expression of SOX9 versus medium controls (SOX9; passage 5 human osteoarthritic chondrocytes, 27 days, 50 micromolar Dec, 0.1 micromolar Dxp, 100 millimolar Lac): 6.34+2.46 fold

Compound: hyaluronic acid [HA]
Observed Relative expression of MMP13 (MMP13; 14-day micromass pellet culture): −1.6 fold | Observed Relative expression of MMP13 (MMP13; 28-day monolayer culture): 1.0 fold

Compound: C[C@@H]1C[C@H]2[C@@H]3CCC4=CC(=O)C=C[C@]4(C)[C@@]3(F)[C@@H](O)C[C@]2(C)[C@@]1(O)C(=O)COP(=O)(O)O [Dxp, dexamethasone phosphate, reference compound]
MMP13 transcription (MMP13; [13]): reduce MMP13 transcription | SOX9 expression (SOX9; [6]): decreased expression of SOX9 | SOX9 expression (SOX9; [13]): temporal decrease in expression of SOX9

Compound: IL-1RA: IL-1 Receptor Antagonist, blocks IL-1β signaling [reference compound]
PGE2 release (PGE2): consistently higher than PGE2 levels in DA treated cells

Compound: CCCCCCCCCC(=O)[O-].[Na+] [decanoate, sodium decanoate]
inhibition of PGE2 release ([2]; added at the same time as IL-1β, 24-hour harvest, 25 uM Dec, singlet): 53% | inhibition of PGE2 release ([2]; added at the same time as IL-1β, 96-hour harvest, 25 uM Dec, singlet): 76% | inhibition of PGE2 release [2, 7]: 41% | inhibition of PGE2 release ([2]; pre-incubation, 96-hour harvest, 25 uM Dec, singlet): 75% | inhibition of PGE2 release [2, 8]: 72% | inhibition of PGE2 release [2, 9]: 57% | expression of SOX9 compared to RUNX2 (SOX9 versus RUNX2): 1.80+0.47 | increase in potency of sodium decanoate (IL-1β release): 4.6 ×
